# Activity calls are given as the source filed them.
# Tests used:
# [1] = tested on: INS1; assay: suppression of NO production in INS-1E cells – cell-based, Griess absorbance, dry powder, set 2, dose response (AID 488868); assay type: functional; settings: Rattus norvegicus
# [2] = tested on: INS1; assay: suppression of NO production in INS-1E cells – cell-based, Griess absorbance, dry powder, dose response (AID 488866); assay type: functional; settings: Rattus norvegicus
# [3] = suppression of NO production in INS-1E cells – cell-based, Griess absorbance, dry powder, set 3, dose response (AID 488870); assay type: functional; settings: Rattus norvegicus
# [4] = tested on: INS1; assay: INS-1E mitochondrial potential loss inhibitors – cell-based, JC-1 fluorescence, dry powder, set 2, dose response (AID 488867); assay type: functional; settings: Rattus norvegicus
# [5] = tested on: INS1; assay: INS-1E mitochondrial potential rescue under cytokines – cell-based, JC-1 fluorescence ratio, dry powder, dose response (AID 488931); assay type: functional; settings: Rattus norvegicus
# [6] = tested on: INS1; assay: beta-cell survival under cytokine stress – INS-1E, ATP luminescence, dry powder, dose response (AID 488844); assay type: functional, cell-based; settings: Rattus norvegicus
# [7] = target: Phospholipase D2 (Homo sapiens, UniProt O14939); assay: cellular phospholipase D2 inhibition IC50 – cell-based, dose response (AID 602147); assay type: functional;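 note: cellular assay in HEK293 cells overexpressing GFP-tagged PLD2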
# Phospholipase D2, sequence (O14939 whole entry): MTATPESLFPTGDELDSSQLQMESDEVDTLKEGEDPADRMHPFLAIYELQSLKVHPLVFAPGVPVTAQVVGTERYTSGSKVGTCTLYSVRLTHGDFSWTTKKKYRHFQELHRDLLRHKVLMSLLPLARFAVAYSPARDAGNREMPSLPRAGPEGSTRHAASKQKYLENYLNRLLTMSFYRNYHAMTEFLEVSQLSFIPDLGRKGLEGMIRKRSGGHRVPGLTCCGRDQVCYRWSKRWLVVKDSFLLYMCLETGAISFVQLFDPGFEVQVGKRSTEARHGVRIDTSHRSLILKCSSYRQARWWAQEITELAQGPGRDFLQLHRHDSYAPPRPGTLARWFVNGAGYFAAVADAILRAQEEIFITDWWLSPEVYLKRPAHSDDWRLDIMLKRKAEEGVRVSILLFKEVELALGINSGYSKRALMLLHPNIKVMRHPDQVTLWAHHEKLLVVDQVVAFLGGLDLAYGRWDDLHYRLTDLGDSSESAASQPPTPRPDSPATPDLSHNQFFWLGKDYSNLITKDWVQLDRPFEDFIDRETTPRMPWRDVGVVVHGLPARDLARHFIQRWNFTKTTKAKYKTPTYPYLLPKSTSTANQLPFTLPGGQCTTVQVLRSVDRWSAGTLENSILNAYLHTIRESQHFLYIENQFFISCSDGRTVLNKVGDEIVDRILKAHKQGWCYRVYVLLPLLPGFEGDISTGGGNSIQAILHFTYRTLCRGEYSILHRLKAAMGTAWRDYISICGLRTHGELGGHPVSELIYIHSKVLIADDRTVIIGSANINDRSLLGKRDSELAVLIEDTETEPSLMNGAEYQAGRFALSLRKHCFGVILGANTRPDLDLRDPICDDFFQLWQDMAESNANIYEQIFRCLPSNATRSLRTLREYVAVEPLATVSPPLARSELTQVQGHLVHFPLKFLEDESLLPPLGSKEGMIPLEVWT
# [8] = target: Phospholipase D1 (Homo sapiens, UniProt Q13393); assay: cellular phospholipase D1 inhibition IC50 – cell-based, dose response (AID 602151); assay type: functional;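 note: cellular PLD1 assay in Calu-1 cells stimulated with PMA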
# [9] = A cell-based HTS for delayed death inhibitors of the malarial parasite plastid Measured in Microorganism System Using Plate Reader - 2126-02_Inhibitor_Dose_DryPowder_Activity.; assay type: functional, organism-based
# [10] = A cell-based HTS for delayed death inhibitors of the malarial parasite plastid Measured in Microorganism System Using Plate Reader - 2126-01_Inhibitor_Dose_DryPowder_Activity.; assay type: functional, organism-based
# [11] = Vero cell cytotoxicity, dose response, cytotoxicity control for M. tuberculosis growth inhibitor project, Vero cells, purified and synthesized compounds, set 4 (AID 504854); assay type: functional; settings: Mycobacterium tuberculosis
# [12] = target: Serine/threonine-protein kinase TAO1 (Homo sapiens, UniProt Q7L7X3); assay type: functional
# [13] = target: Casein kinase I isoform alpha (Homo sapiens, UniProt P48729); assay type: functional
# Casein kinase I isoform alpha, sequence (P48729 whole entry, canonical isoform): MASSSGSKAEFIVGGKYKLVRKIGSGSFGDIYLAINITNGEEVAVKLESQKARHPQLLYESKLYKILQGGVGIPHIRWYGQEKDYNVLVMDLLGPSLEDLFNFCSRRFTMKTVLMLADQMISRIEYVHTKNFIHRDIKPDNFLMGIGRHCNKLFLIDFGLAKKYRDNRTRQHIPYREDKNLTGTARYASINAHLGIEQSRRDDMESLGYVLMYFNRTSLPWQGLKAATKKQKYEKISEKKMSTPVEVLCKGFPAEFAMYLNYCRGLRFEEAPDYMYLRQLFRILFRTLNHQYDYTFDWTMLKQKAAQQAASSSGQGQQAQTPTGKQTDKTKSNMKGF
# [14] = target: Calcium/calmodulin-dependent protein kinase type II subunit beta (Homo sapiens, UniProt Q13554); assay type: functional
# Calcium/calmodulin-dependent protein kinase type II subunit beta, sequence (Q13554 whole entry, canonical isoform): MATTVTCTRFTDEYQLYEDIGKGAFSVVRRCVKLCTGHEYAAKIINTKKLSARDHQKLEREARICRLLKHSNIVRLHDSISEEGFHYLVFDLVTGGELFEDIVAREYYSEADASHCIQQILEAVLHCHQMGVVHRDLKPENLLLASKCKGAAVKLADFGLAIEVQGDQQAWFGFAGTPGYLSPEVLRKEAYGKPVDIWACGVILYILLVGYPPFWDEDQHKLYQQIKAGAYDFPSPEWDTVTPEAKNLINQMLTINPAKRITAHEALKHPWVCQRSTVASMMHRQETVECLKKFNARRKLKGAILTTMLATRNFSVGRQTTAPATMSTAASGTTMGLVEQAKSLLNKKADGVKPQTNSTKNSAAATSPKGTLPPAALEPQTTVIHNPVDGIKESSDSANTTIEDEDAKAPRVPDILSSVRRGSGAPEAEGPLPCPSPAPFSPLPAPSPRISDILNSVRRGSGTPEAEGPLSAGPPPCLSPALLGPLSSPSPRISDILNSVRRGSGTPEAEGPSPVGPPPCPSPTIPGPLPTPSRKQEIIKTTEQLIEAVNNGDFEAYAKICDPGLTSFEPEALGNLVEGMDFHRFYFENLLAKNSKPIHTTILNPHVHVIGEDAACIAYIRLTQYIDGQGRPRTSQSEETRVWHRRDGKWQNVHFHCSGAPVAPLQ
# [15] = target: Casein kinase I isoform delta (Homo sapiens, UniProt P48730); assay type: functional;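 note: measured as one member (CSNK1D) of a kinome panel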
# Casein kinase I isoform delta, sequence (P48730 whole entry, canonical isoform): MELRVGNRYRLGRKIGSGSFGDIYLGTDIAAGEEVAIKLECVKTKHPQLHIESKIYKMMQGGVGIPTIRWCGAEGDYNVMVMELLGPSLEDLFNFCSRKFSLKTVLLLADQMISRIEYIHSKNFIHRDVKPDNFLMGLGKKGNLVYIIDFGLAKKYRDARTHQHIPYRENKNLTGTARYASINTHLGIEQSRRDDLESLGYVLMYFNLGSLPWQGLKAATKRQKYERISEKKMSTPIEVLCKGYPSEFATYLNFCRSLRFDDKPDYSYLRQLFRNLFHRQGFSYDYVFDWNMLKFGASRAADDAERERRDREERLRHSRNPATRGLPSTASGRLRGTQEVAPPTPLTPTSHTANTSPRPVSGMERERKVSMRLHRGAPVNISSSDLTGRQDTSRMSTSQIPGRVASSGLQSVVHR
# [16] = target: Calcium/calmodulin-dependent protein kinase type II subunit delta (Homo sapiens, UniProt Q13557); assay type: functional
# Calcium/calmodulin-dependent protein kinase type II subunit delta, sequence (Q13557 whole entry): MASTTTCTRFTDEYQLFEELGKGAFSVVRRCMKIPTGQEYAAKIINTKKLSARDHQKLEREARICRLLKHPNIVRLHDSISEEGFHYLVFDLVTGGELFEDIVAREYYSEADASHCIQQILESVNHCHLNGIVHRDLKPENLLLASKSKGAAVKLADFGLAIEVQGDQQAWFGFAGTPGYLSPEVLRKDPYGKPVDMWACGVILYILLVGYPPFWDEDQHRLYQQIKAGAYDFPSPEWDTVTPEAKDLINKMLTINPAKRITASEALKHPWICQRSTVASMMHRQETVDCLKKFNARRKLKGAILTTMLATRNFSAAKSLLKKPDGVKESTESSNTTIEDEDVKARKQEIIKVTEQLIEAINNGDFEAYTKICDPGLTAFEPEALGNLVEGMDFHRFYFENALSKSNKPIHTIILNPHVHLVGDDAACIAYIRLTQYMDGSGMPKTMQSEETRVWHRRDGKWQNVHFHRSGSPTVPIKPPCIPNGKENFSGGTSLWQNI
# [17] = target: Serine/threonine-protein kinase PAK 1 (Homo sapiens, UniProt Q13153); assay type: functional
# Serine/threonine-protein kinase PAK 1, sequence (Q13153 whole entry): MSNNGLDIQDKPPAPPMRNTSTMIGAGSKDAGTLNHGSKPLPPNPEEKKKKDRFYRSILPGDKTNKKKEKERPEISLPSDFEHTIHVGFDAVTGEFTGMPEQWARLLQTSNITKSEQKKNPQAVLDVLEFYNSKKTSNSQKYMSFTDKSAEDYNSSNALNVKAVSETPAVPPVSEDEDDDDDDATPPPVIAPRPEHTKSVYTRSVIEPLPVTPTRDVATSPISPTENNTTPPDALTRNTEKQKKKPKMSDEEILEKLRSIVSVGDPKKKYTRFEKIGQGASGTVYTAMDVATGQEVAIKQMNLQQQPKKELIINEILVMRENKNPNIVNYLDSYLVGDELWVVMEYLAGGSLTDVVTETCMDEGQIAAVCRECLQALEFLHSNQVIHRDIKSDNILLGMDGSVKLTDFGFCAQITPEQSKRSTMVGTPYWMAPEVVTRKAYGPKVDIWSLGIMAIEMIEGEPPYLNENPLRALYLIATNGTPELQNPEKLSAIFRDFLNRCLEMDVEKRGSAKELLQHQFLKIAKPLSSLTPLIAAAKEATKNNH
# [18] = target: Calcium/calmodulin-dependent protein kinase type II subunit gamma (Homo sapiens, UniProt Q13555); assay type: functional
# Calcium/calmodulin-dependent protein kinase type II subunit gamma, sequence (Q13555 whole entry): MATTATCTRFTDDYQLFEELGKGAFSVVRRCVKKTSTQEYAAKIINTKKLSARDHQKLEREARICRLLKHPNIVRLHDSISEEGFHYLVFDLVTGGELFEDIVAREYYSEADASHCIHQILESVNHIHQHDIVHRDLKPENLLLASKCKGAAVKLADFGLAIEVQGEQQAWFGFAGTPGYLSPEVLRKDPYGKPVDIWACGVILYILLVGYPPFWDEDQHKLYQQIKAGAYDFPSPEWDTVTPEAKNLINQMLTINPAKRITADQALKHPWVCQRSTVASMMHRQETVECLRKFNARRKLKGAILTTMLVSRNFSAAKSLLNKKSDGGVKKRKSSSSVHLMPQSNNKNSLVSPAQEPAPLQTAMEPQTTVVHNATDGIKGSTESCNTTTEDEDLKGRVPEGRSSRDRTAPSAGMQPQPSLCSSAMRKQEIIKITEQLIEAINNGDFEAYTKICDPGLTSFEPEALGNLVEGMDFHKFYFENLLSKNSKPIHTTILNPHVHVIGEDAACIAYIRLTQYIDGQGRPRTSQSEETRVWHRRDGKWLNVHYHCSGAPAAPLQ
# [19] = target: Protein kinase C delta type (Homo sapiens, UniProt Q05655); assay type: functional
# [20] = target: Latent membrane protein 1 (Human herpesvirus 4 (strain B95-8), UniProt P03230); assay: LMP1 TES1 pathway selectivity over dsRED control – imaging, HEK293T, dual-color eGFP/dsRED, cherry-picks, selectivity assay for LMP1 NF-kB inhibitor project, dose response (AID 588398); assay type: functional, cell-based
# Latent membrane protein 1, sequence (P03230 whole entry): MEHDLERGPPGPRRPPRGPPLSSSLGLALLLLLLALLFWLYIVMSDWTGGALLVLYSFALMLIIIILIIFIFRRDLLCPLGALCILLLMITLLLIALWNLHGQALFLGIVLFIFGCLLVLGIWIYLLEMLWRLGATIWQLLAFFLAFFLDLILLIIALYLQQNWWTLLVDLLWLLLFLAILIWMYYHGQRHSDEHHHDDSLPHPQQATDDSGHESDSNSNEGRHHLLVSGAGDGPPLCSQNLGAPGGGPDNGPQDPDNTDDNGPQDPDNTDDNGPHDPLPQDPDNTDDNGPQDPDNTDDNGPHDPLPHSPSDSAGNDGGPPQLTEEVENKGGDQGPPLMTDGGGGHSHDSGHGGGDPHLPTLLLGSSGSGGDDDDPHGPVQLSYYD
# [21] = target: Aurora kinase A (Homo sapiens, UniProt O14965); assay type: functional;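 note: value from the Navigating the Kinome kinase panel profiling, panel entry STK6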
# [22] = target: Aurora kinase B (Homo sapiens, UniProt Q96GD4); assay type: functional
# Aurora kinase B, sequence (Q96GD4 whole entry): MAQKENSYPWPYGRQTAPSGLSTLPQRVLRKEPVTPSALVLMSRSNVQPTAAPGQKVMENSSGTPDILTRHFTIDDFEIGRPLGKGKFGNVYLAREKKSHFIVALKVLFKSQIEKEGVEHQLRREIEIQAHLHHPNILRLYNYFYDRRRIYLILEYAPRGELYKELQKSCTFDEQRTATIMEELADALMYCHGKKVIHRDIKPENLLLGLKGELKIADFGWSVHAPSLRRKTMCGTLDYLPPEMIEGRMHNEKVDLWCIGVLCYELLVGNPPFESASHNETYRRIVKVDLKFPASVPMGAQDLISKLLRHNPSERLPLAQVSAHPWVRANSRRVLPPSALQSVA
# [23] = target: Vascular endothelial growth factor receptor 2 (Homo sapiens, UniProt P35968); assay type: functional
smiles,measurement,setting,value
C[C@@H]1CN([C@@H](C)CO)C(=O)c2cccc(NC(=O)Nc3cccc4ccccc34)c2O[C@H]1CN(C)S(=O)(=O)c1cccc(F)c1,AC50,[1],29.6 µM (active)
same,AC50,[2],32.1 µM (active)
same,AC50,[3],22.9 µM (active)
C[C@@H]1CN([C@@H](C)CO)C(=O)c2cccc(NC(=O)Nc3cccc4ccccc34)c2O[C@H]1CN(C)S(=O)(=O)c1ccc2c(c1)OCC2,AC50,[4],29.8 µM (active)
same,AC50,[5],> 195 µM (inactive)
same,AC50,[3],25.2 µM (active)
same,AC50,[6],67.9 µM (active)
C[C@@H](CN1CCC(n2c(=O)[nH]c3ccccc32)CC1)NC(=O)CCc1ccc(F)cc1,IC50,[7],9 µM (active)
same,IC50,[8],0.26 µM (active)
C[C@@H]1CN([C@@H](C)CO)C(=O)c2cc(NC(=O)Nc3ccccc3)ccc2O[C@@H](C)CCCCO[C@H]1CN(C)C(=O)OC(C)(C)C,AC50,[9],1.37 µM (active)
same,AC50,[10],2.41 µM (active)
CCC(Sc1nc2ccccc2c(=O)[nH]1)C(=O)Nc1cccc(OC)c1 (centres undefined),CC50,[11],> 100 µM (active)
CCCCOc1ccccc1CCc1cccc2nc(N)nc(N)c12,Ki,[12],10 µM (active)
same,Ki,[13],1.58 µM (active)
same,Ki,[14],2.51 µM (active)
same,Ki,[15],3.98 µM (active)
same,Ki,[16],5.01 µM (active)
same,Ki,[17],3.16 µM (active)
same,Ki,[18],3.16 µM (active)
same,Ki,[19],5.01 µM (active)
Cc1ccc(/C=N/NC(=O)c2cc(-c3ccccc3)nc3ccccc23)o1,AC50,[20],27.2 µM (active)
COc1cc(-c2ccc3c(c2)Nc2cc(OCCCCO)c(OC)cc2NC3=O)ccc1O,Ki,[21],1.26 µM (active)
same,Ki,[22],1.58 µM (active)
same,Ki,[23],3.98 µM (active)

# — ChEMBL document CHEMBL1201862, “PubChem BioAssay data set” (2004)
